Assay results as given in ChEMBL document CHEMBL4507293 (2021).

Legend:
[1] = biological target: Sigma intracellular receptor 2 (Homo sapiens, UniProt Q5BJF2); assay: GPCRScan assay: inhibition of Sigma 2; parameters: radioligand conc. used [nm] 5.0, parental cells HEKT
[2] = system: Tyrosine-protein kinase ABL1 (Homo sapiens), P00519 [T315I]; settings: Compound concentration 100.0 nM
[3] = biological target: Activin receptor type-1 (Homo sapiens) (UniProt Q04771); settings: Compound concentration 100.0 nM
[4] = biological target: Aurora kinase C (Homo sapiens) (UniProt Q9UQB9); settings: Compound concentration 100.0 nM
[5] = biological target: Protein-tyrosine kinase 6 (Homo sapiens) (UniProt Q13882); settings: Compound concentration 100.0 nM
[6] = biological target: Serine/threonine-protein kinase BRSK1 (Homo sapiens) (UniProt Q8TDC3); settings: Compound concentration 100.0 nM
[7] = biological target: Calcium/calmodulin-dependent protein kinase type 1 (Homo sapiens) (UniProt Q14012); settings: Compound concentration 100.0 nM
[8] = biological target: Cyclin-dependent kinase 19 (Homo sapiens) (UniProt Q9BWU1); settings: Compound concentration 100.0 nM
[9] = biological target: Serine/threonine-protein kinase Chk2 (Homo sapiens) (UniProt O96017); settings: Compound concentration 100.0 nM
[10] = biological target: Casein kinase I isoform gamma-2 (Homo sapiens) (UniProt P78368); settings: Compound concentration 100.0 nM
[11] = biological target: Dual specificity tyrosine-phosphorylation-regulated kinase 1A (Homo sapiens) (UniProt Q13627); settings: Compound concentration 100.0 nM
[12] = biological target: Ephrin type-A receptor 1 (Homo sapiens) (UniProt P21709); settings: Compound concentration 100.0 nM
[13] = biological target: Ephrin type-B receptor 3 (Homo sapiens) (UniProt P54753); settings: Compound concentration 100.0 nM
[14] = biological target: Receptor tyrosine-protein kinase erbB-3 (Homo sapiens) (UniProt P21860); settings: Compound concentration 100.0 nM
[15] = biological target: Mitogen-activated protein kinase 7 (Homo sapiens) (UniProt Q13164); settings: Compound concentration 100.0 nM
[16] = biological target: Tyrosine-protein kinase Fer (Homo sapiens) (UniProt P16591); settings: Compound concentration 100.0 nM
[17] = biological target: Tyrosine-protein kinase Fes/Fps (Homo sapiens) (UniProt P07332); settings: Compound concentration 100.0 nM
[18] = biological target: Vascular endothelial growth factor receptor 3 (Homo sapiens) (UniProt P35916); settings: Compound concentration 100.0 nM
[19] = biological target: Mast/stem cell growth factor receptor Kit (Homo sapiens) (UniProt P10721); settings: Compound concentration 100.0 nM
[20] = biological target: Serine/threonine-protein kinase MARK2 (Homo sapiens) (UniProt Q7KZI7); settings: Compound concentration 100.0 nM
[21] = biological target: MAP/microtubule affinity-regulating kinase 4 (Homo sapiens) (UniProt Q96L34); settings: Compound concentration 100.0 nM
[22] = biological target: Misshapen-like kinase 1 (Homo sapiens) (UniProt Q8N4C8); settings: Compound concentration 100.0 nM
[23] = biological target: Serine/threonine-protein kinase 26 (Homo sapiens) (UniProt Q9P289); settings: Compound concentration 100.0 nM
[24] = biological target: Mitogen-activated protein kinase 11 (Homo sapiens) (UniProt Q15759); settings: Compound concentration 100.0 nM
[25] = biological target: Cyclin-dependent kinase 16 (Homo sapiens) (UniProt Q00536); settings: Compound concentration 100.0 nM
[26] = biological target: Platelet-derived growth factor receptor alpha (Homo sapiens) (UniProt P16234); settings: Compound concentration 100.0 nM
[27] = biological target: Platelet-derived growth factor receptor beta (Homo sapiens) (UniProt P09619); settings: Compound concentration 100.0 nM
[28] = biological target: Phosphatidylinositol 4-phosphate 5-kinase type-1 alpha (Homo sapiens) (UniProt Q99755); settings: Compound concentration 100.0 nM
[29] = biological target: cAMP-dependent protein kinase catalytic subunit beta (Homo sapiens) (UniProt P22694); settings: Compound concentration 100.0 nM
[30] = system: Proto-oncogene tyrosine-protein kinase receptor Ret (Homo sapiens), P07949 [V804L]; settings: Compound concentration 100.0 nM
[31] = biological target: Rho-associated protein kinase 2 (Homo sapiens) (UniProt O75116); settings: Compound concentration 100.0 nM
[32] = biological target: Ribosomal protein S6 kinase alpha-1 (Homo sapiens) (UniProt Q15418); settings: Compound concentration 100.0 nM
[33] = biological target: SRSF protein kinase 2 (Homo sapiens) (UniProt P78362); settings: Compound concentration 100.0 nM
[34] = biological target: Serine/threonine-protein kinase 35 (Homo sapiens) (UniProt Q8TDR2); settings: Compound concentration 100.0 nM
[35] = biological target: Activated CDC42 kinase 1 (Homo sapiens) (UniProt Q07912); settings: Compound concentration 100.0 nM
[36] = biological target: Serine/threonine-protein kinase VRK2 (Homo sapiens) (UniProt Q86Y07); settings: Compound concentration 100.0 nM
[37] = biological target: 5-hydroxytryptamine receptor 2B (Homo sapiens) (UniProt P41595); settings: Compound concentration 10.0 uM
[38] = biological target: Beta-2 adrenergic receptor (Homo sapiens) (UniProt P07550); settings: Compound concentration 10.0 uM
[39] = biological target: T1, Muscarinic acetylcholine receptor M5 (Homo sapiens) (UniProt P08912); settings: Compound concentration 10.0 uM
T1 sequence (whole entry): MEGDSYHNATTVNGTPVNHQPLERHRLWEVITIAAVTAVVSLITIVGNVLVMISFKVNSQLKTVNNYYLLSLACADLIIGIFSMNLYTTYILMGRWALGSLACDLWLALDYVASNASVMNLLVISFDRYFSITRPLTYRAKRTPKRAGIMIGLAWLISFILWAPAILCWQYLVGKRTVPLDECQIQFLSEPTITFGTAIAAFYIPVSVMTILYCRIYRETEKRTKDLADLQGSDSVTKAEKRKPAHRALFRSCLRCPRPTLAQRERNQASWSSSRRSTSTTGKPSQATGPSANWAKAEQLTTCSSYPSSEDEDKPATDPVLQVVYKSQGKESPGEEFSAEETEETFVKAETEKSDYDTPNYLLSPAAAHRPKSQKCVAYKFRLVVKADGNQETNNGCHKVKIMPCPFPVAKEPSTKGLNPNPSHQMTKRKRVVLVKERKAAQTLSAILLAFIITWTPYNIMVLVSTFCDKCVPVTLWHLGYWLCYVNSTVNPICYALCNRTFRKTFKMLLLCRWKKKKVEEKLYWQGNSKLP

Mitogen-activated protein kinase 11 (Homo sapiens), sequence (Q15759 whole entry): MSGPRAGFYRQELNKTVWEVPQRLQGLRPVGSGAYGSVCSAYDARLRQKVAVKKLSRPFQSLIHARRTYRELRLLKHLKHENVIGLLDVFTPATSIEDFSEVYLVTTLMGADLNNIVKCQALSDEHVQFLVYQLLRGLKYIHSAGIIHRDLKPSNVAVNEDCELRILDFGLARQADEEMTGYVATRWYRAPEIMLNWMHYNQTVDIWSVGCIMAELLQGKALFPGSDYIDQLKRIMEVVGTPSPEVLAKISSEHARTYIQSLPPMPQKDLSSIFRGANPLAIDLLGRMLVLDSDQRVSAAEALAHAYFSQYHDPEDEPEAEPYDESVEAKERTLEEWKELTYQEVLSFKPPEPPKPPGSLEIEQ
Receptor tyrosine-protein kinase erbB-3 (Homo sapiens), sequence (P21860 whole entry): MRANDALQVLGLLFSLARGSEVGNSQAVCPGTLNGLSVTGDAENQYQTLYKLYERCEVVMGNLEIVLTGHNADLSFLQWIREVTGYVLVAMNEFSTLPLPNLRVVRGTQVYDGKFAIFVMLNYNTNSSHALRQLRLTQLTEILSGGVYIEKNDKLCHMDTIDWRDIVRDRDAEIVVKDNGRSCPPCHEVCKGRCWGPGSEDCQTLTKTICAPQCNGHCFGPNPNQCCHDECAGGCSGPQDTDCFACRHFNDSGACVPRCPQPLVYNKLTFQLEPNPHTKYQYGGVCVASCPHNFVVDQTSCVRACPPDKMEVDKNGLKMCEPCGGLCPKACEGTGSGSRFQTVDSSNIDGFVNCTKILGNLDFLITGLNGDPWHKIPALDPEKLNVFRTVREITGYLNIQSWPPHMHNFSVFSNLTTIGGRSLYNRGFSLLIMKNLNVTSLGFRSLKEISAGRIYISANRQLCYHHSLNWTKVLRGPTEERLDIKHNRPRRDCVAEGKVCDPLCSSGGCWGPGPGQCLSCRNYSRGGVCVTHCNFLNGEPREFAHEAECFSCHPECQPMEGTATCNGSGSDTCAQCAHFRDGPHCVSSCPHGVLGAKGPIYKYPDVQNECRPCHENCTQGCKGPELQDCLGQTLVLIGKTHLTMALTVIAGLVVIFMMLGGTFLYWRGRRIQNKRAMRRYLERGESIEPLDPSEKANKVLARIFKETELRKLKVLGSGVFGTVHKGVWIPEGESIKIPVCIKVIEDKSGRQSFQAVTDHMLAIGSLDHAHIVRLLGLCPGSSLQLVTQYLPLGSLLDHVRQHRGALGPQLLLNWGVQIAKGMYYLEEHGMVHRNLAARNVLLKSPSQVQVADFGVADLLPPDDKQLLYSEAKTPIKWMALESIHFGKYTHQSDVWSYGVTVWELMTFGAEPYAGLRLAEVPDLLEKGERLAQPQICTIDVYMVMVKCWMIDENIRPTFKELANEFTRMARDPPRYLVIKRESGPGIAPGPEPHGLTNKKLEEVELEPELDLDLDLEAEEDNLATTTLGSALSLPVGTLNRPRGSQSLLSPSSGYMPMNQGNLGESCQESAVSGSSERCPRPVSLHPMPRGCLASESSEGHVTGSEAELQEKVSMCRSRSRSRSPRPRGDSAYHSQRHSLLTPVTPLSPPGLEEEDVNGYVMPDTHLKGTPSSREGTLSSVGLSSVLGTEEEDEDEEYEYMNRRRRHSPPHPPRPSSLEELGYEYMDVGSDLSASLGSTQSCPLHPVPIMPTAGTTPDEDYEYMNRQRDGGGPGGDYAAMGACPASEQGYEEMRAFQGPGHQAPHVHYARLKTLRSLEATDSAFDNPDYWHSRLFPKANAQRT
Ephrin type-A receptor 1 (Homo sapiens), sequence (P21709 whole entry): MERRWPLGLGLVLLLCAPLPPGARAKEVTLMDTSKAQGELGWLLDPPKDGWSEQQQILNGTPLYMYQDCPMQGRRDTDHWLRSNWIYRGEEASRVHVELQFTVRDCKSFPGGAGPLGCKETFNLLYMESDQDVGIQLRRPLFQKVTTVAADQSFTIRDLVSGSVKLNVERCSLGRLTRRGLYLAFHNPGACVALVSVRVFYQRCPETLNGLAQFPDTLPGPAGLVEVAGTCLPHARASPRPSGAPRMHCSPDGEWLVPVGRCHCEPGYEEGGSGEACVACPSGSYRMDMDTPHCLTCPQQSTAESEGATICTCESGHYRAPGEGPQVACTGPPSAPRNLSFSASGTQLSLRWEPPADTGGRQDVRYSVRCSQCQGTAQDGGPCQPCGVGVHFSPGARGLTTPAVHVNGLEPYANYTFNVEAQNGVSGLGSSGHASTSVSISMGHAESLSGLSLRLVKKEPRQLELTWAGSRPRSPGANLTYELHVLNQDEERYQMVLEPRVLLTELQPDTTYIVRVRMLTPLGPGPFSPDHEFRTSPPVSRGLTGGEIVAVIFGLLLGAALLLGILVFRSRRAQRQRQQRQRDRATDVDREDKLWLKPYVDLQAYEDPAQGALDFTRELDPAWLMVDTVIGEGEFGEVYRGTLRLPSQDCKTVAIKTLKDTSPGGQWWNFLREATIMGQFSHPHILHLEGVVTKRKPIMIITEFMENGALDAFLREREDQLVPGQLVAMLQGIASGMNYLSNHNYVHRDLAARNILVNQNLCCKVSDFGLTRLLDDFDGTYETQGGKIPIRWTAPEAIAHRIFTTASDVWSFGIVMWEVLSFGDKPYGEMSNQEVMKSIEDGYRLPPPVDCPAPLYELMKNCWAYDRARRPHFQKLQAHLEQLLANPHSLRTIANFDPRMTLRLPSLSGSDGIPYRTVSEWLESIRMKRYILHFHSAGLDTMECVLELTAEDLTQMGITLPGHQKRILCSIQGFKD
Serine/threonine-protein kinase 35 (Homo sapiens), sequence (Q8TDR2 whole entry): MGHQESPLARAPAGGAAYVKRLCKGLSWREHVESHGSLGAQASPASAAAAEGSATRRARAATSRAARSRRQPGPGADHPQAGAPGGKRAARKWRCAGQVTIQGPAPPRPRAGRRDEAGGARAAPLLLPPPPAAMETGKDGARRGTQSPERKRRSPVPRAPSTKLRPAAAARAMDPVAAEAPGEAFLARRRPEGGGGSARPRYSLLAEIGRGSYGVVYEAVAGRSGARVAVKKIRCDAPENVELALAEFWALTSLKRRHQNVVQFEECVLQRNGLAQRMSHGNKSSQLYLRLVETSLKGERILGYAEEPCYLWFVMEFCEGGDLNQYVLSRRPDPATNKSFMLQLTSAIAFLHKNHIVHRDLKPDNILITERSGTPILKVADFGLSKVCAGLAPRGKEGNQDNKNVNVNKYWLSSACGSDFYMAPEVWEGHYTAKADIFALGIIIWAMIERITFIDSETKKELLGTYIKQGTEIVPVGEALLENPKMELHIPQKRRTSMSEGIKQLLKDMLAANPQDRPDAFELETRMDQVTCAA
Activated CDC42 kinase 1 (Homo sapiens), sequence (Q07912 whole entry, looked up): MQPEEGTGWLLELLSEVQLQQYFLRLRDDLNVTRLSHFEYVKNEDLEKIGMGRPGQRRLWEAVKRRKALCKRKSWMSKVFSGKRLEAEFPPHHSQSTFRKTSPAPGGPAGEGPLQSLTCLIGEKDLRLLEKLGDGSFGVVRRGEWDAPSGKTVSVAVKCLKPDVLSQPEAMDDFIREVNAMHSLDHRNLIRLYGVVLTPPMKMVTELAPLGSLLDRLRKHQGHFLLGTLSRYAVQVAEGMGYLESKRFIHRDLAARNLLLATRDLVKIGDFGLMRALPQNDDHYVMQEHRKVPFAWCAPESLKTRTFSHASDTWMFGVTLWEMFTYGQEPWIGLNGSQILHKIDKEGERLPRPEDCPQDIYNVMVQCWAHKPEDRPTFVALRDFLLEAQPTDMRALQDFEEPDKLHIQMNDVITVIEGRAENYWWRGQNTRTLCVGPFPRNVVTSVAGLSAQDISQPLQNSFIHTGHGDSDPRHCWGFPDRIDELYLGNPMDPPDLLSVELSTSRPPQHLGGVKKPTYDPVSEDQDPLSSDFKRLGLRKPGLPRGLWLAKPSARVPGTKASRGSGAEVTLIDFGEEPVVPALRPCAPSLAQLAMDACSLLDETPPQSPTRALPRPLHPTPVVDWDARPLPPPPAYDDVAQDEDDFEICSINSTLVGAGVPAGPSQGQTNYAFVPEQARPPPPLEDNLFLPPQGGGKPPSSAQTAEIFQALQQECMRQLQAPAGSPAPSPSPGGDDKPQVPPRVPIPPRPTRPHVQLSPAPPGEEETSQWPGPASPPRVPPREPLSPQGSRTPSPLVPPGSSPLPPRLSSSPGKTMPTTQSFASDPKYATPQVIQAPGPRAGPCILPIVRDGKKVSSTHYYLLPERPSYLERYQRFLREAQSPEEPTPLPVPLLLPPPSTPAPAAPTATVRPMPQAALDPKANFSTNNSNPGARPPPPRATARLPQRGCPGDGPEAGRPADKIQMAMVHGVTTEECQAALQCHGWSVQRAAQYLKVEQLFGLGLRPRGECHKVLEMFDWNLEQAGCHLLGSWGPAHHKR
Serine/threonine-protein kinase BRSK1 (Homo sapiens), sequence (Q8TDC3 whole entry): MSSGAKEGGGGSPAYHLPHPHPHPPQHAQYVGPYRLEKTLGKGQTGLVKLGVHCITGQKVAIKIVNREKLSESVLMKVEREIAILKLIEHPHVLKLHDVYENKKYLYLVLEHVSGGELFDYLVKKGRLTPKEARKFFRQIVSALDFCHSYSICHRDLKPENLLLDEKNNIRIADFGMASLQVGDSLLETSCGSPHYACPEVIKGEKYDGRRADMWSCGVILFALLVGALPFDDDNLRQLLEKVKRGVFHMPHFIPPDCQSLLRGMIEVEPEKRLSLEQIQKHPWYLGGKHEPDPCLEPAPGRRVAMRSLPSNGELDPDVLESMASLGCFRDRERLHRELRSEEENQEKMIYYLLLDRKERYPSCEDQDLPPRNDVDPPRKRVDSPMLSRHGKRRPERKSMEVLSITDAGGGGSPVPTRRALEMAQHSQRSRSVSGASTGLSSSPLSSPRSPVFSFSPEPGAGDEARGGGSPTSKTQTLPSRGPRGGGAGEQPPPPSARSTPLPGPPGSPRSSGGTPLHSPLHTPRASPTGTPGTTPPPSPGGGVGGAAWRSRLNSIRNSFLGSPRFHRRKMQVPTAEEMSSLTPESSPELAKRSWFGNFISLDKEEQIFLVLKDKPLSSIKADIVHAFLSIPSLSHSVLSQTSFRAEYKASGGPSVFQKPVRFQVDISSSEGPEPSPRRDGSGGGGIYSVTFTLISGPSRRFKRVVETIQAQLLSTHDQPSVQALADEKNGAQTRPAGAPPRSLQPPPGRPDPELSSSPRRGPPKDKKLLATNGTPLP

Row | Structure (SMILES) | Ki [1] [µM] | residual activity [2] [%] | residual activity [3] [%] | residual activity [4] [%] | residual activity [5] [%] | residual activity [6] [%] | residual activity [7] [%] | residual activity [8] [%] | residual activity [9] [%] | residual activity [10] [%] | residual activity [11] [%] | residual activity [12] [%] | residual activity [13] [%] | residual activity [14] [%] | residual activity [15] [%] | residual activity [16] [%] | residual activity [17] [%] | residual activity [18] [%] | residual activity [19] [%] | residual activity [20] [%] | further results
1 | CC(C)CC(=O)N1CCc2nc(-c3ccc(Br)cc3)nc(N(C)Cc3ccccc3)c2C1 [THPP-1-NC] | 0.708 | 100 | 100 | 100 | 100 | 100 | 100 | 62 | 100 | 86 | 78 | 100 | 100 | 73 | 100 | 100 | 100 | 100 | 100 | 100 | residual activity [21]: 100%; residual activity [22]: 100%; residual activity [23]: 100%; residual activity [24]: 100%; residual activity [25]: 100%; residual activity [26]: 98%; residual activity [27]: 100%; residual activity [28]: 100%; residual activity [29]: 82%; residual activity [30]: 100%; residual activity [31]: 74%; residual activity [32]: 93%; residual activity [33]: 100%; residual activity [34]: 96%; residual activity [35]: 99%; residual activity [36]: 77%; inhibition [37]: 7.85%; inhibition [38]: 5.63%; inhibition [39]: 7.59%
2 | COCCOc1nc(-c2ccc(Cl)nc2)nc2c1CN(C(=O)c1ncn3ccccc13)CC2 [THPP-1] | 3.35 | 75 | 100 | 95 | 100 | 100 | 100 | 63 | 100 | 94 | 78 | 100 | 100 | 65 | 100 | 100 | 100 | 88 | 100 | 100 | residual activity [21]: 100%; residual activity [22]: 100%; residual activity [23]: 100%; residual activity [24]: 100%; residual activity [25]: 100%; residual activity [26]: 100%; residual activity [27]: 100%; residual activity [28]: 100%; residual activity [29]: 73%; residual activity [30]: 100%; residual activity [31]: 76%; residual activity [32]: 100%; residual activity [33]: 100%; residual activity [34]: 100%; residual activity [35]: 100%; residual activity [36]: 91%; inhibition [37]: 3.25%; inhibition [38]: -0.65%; inhibition [39]: 7.79%
